Laboratory results: patent US11274124B2, “Tubulysin analogues as anticancer agents and payloads for antibody-drug conjugates and methods of treatment therewith” (William Marsh Rice University, priority 2017, dated 2022)
Like-named read-outs stand apart in the source and are kept apart here.

Tests used:
[1] = system: HEK 293T (human embryonic kidney cancer cell line); experiment: In vitro cytotoxicity assay (CellTiter-Glo, 72 hours), HEK 293T; assay type: cell-based
[2] = system: MES SA DX (MES SA cell line with marked multi-drug resistance); experiment: In vitro cytotoxicity assay (CellTiter-Glo, 72 hours), MES SA DX
[3] = system: MES SA, MES SA DX and HEK 293T cells; experiment: In vitro cytotoxicity assay, structure-activity discussion over the cell lines tested; conditions: refers to Tables 2 and 3
[4] = system: MES SA (uterine sarcoma cell line); experiment: In vitro cytotoxicity assay (CellTiter-Glo, 72 hours), MES SA; assay type: cell-based
[5] = Homo sapiens, HEK-293T, 72 h, read-out: HEK 293T, IC50 Value in nM
[6] = Homo sapiens, MES-SA, 72 h, read-out: MES SA DX, IC50 Value in nM
[7] = Homo sapiens, MES-SA, 72 h, read-out: MES SA, IC50 Value in nM
[8] = Homo sapiens, HEK-293T, 72 h, read-out: HEK 293T, IC50
[9] = Homo sapiens, MES-SA, 72 h, read-out: MES SA DX, IC50
[10] = Homo sapiens, MES-SA, 72 h, read-out: MES SA, IC50

Structure (SMILES)	IC50 [1, 5]	IC50 [2, 6]	cytotoxicity potency (in words, structure-activity discussion) [3]	IC50 [4, 7]	IC50 [1, 8]	IC50 [2, 9]	IC50 [4, 10]	IC50 ([1]; Table 2, 72 hours, CellTiter-Glo, read-out: HEK 293T, IC50 Value in nM)	IC50 ([2]; read-out: MES SA DX, IC50 Value in nM, Table 2, 72 hours, CellTiter-Glo)	IC50 ([4]; Table 2, 72 hours, CellTiter-Glo, read-out: MES SA, IC50 Value in nM)
CCCCN1CCCC[C@@H]1C(=O)N[C@H](C(=O)N(C)[C@H](C[C@@H](OC(C)=O)c1nc(C(=O)N[C@H]2CC[C@H](C(=O)O)CC2)cs1)C(C)C)C(C)C [Tb55, trans-4-[({2-[(1R,3R)-1-Acetoxy-3-{[(2S)-2-({[(2R)-1-butylpiperidin-2-yl]carbonyl}amino)-3-methylbutanoyl](methyl)amino}-4-methylpentyl]-1,3-thiazol-4-yl}carbonyl)amino]cyclohexanecarboxylic acid]	> 1000 nM	> 1000 nM	insignificant or low biological activity	> 1000 nM	–	–	–	–	–	–
CCCCN1CCCC[C@@H]1C(=O)N[C@H](C(=O)N(C)[C@H](CCc1nc(C(=O)N[C@@H](Cc2ccccc2)C[C@H](C)C(=O)OC)cs1)C(C)C)[C@@H](C)CC [PTb-D47]	> 1000 nM	> 1000 nM	insignificant or low biological activity	> 1000 nM	–	–	–	–	–	–
CC[C@H](C)[C@H](NC(=O)[C@H]1CCCCN1C)C(=O)N(C)[C@H](CCc1nc(C(=O)N[C@@H](Cc2ccccc2)C[C@H](C)C(=O)OC)cs1)C(C)C [PTb-D42]	–	–	significant reduction in potency	–	–	–	–	–	–	–
Cc1sc(C(=O)C[C@H](C(C)C)N(C)C(=O)[C@@H](NC(=O)[C@H]2CCCCN2C)C(C)C)nc1C(=O)N[C@@H](Cc1ccccc1)C[C@H](C)C(=O)O [Tb68, (2S,4R)-2-Methyl-4-[({5-methyl-2-[(3R)-4-methyl-3-{methyl[(2S)-3-methyl-2-({[(2R)-1-methyl-piperidin-2-yl]carbonyl}amino)butanoyl]amino}pentanoyl]-1,3-thiazol-4-yl}carbonyl)amino]-5-phenylpentanoic acid]	> 1000 nM	> 1000 nM	significant reduction in potency	> 1000 nM	–	–	–	–	–	–
CC(=O)O[C@H](C[C@H](C(C)C)N(C)C(=O)[C@@H](NC(=O)[C@H]1CCCCN1C)C(C)C)c1nc(C(=O)N[C@@H](Cc2ccccc2)C[C@H](C)C(=O)O)c(C(C)C)s1 [Tb73, (2S,4R)-4-[({2-[(1R,3R)-1-Acetoxy-4-methyl-3-{methyl[(2S)-3-methyl-2-({[(2R)-1-methylpiperidin-2-yl]carbonyl}amino)butanoyl]amino}pentyl]-5-isopropyl-1,3-thiazol-4-yl}carbonyl)amino]-2-methyl-5-phenylpentanoic acid]	0.16 nM	44.7 nM	significant loss of potency	1.28 nM	0.16 nM	44.7 nM	1.28 nM	–	–	–
COC(=O)[C@@H](C)C[C@H](Cc1ccc(F)cc1)NC(=O)c1csc([C@@H](C[C@H](C(C)C)N(C)C(=O)[C@@H](NC(=O)[C@H]2CCCCN2C)C2CC2)OC(C)=O)n1 [Tb101, Methyl (2S,4R)-4-[({2-[(1R,3R)-1-acetoxy-3-{[(2S)-2-cyclopropyl-2-({[(2R)-1-methylpiperidin-2-yl]-carbonyl}amino)acetyl](methyl)amino}-4-methylpentyl]-1,3-thiazol-4-yl}carbonyl)amino]-5-(4-fluorophenyl)-2-methylpentanoate]	> 1000 nM	> 1000 nM	loss of activity	> 1000 nM	–	–	–	–	–	–
CCCC[C@H](NC(=O)[C@H]1CCCCN1C)C(=O)N(C)[C@H](C[C@@H](OC(C)=O)c1nc(C(=O)N[C@@H](Cc2ccccc2)C[C@H](C)C(=O)OCC)cs1)C(C)C [Tb95, Ethyl (2S,4R)-4-[({2-[(1R,3R)-1-acetoxy-4-methyl-3-{methyl[(2S)-2-({[(2R)-1-methylpiperidin-2-yl]-carbonyl}amino)hexanoyl]amino}pentyl]-1,3-thiazol-4-yl}carbonyl)amino]-2-methyl-5-phenylpentanoate]	0.53 nM	> 1000 nM	lack of or significantly lower cytotoxicities	0.937 nM	0.53 nM	> 1000 nM	0.937 nM	–	–	–
CC(C)[C@H](NC(=O)[C@H]1CCCCN1C)C(=O)N(C)[C@H](C[C@@H](O)c1nc(C(=O)N[C@@H](Cc2ccccc2)C[C@H](C)C(=O)O)cs1)C(C)C [Tb60, (2S,4R)-4-[({2-[(1R,3R)-1-Hydroxy-4-methyl-3-{methyl[(2S)-3-methyl-2-({[(2R)-1-methylpiperidin-2-yl]carbonyl}amino)butanoyl]amino}pentyl]-1,3-thiazol-4-yl}carbonyl)amino]-2-methyl-5-phenylpentanoic acid]	6.34 nM	> 2500 nM	significant reduction in potency	14 nM	–	–	–	–	–	–
CCOC(=O)[C@@H](C)C[C@H](Cc1ccccc1)NC(=O)c1csc([C@@H](C[C@H](C(C)C)N(C)C(=O)[C@H](CCC(C)C)NC(=O)[C@H]2CCCCN2C)OC(C)=O)n1 [Tb97, Ethyl (2S,4R)-4-[({2-[(1R,3R)-1-acetoxy-4-methyl-3-{methyl[(2S)-5-methyl-2-({[(2R)-1-methyl-piperidin-2-yl]carbonyl}amino)hexanoyl]amino}pentyl]-1,3-thiazol-4-yl}carbonyl)amino]-2-methyl-5-phenylpentanoate]	2.87 nM	> 1000 nM	lack of or significantly lower cytotoxicities	4.65 nM	–	–	–	–	–	–
CC[C@H](C)[C@H](NC(=O)[C@H]1CCCCN1C)C(=O)N(C)[C@H](CCc1nc(C(=O)N[C@@H](Cc2ccccc2)C[C@H](C)C(=O)O)cs1)C(C)C [PTb-D43, pretubulysin D, reference compound]	–	–	significant reduction in potency	–	–	–	–	–	–	–
COC(=O)[C@@H](C)C[C@H](Cc1ccccc1)NC(=O)c1cccc([C@@H](C[C@H](C(C)C)N(C)C(=O)[C@@H](NC(=O)[C@H]2CCCCN2C)C(C)C)OC(C)=O)n1 [Tb64, Methyl (2S,4R)-4-[({6-[(1R,3R)-1-acetoxy-4-methyl-3-{methyl[(2S)-3-methyl-2-({[(2R)-1-methyl-piperidin-2-yl]carbonyl}amino)butanoyl]amino}pentyl]pyridin-2-yl}carbonyl)amino]-2-methyl-5-phenylpentanoate]	0.1 nM	109 nM	–	0.22 nM	0.1 nM	109 nM	0.22 nM	–	–	–
COC(=O)[C@@H](C)C[C@H](Cc1ccccc1)NC(=O)c1csc([C@@H](C[C@H](C(C)C)N(C)C(=O)[C@H](NC(=O)[C@H]2CCCN2C)C(C(F)(F)F)C(F)(F)F)OC(C)=O)n1 [Tb86, Methyl (2S,4R)-4-[({2-[(1R,3R)-1-acetoxy-4-methyl-3-{methyl[(2R)-4,4,4-trifluoro-2-({[(2R)-1-meth-ylpyrrolidin-2-yl]carbonyl}amino)-3-(trifluoromethyl)butanoyl]amino}pentyl]-1,3-thiazol-4-yl}car-bonyl)amino]-2-methyl-5-phenylpentanoate]	> 1000 nM	> 1000 nM	–	> 1000 nM	–	–	–	–	–	–
COC(=O)[C@H](CO)C[C@H](Cc1ccccc1)NC(=O)c1csc([C@@H](C[C@H](C(C)C)N(C)C(=O)[C@@H](NC(=O)[C@H]2CCCCN2C)C(C)C)OC(C)=O)n1 [Tb120, Methyl (2S,4R)-4-{2-[(1R,3R)-1-acetoxy-3-{(S)—N,3-dimethyl-2-[(R)-1-methylpiperidine-2-carboxamido]butanamido}-4-methylpentyl]thiazole-4-carboxamido}-2-(hydroxymethyl)-5-phenylpentanoate]	0.039 nM	> 14 nM	–	0.059 nM	0.039 nM	> 14 nM	0.059 nM	–	–	–
COC(=O)[C@@H](C)C[C@H](Cc1ccccc1)NC(=O)c1nc([C@@H](C[C@H](C(C)C)N(C)C(=O)[C@@H](NC(=O)[C@H]2CC(=O)CCN2C)C(C)C)OC(C)=O)sc1C(C)C [Tb75, Methyl (2S,4R)-4-[({2-[(1R,3R)-1-acetoxy-4-methyl-3-{methyl[(2S)-3-methyl-2-({[(2R)-1-methyl-4-oxopiperidin-2-yl]carbonyl}amino)butanoyl]amino}pentyl]-5-isopropyl-1,3-thiazol-4-yl}carbonyl)-amino]-2-methyl-5-phenylpentanoate]	127 nM	> 400 nM	–	≥ 400 nM	–	–	–	–	–	–
CC[C@H](C)[C@H](NC(=O)[C@H]1CCCCN1C)C(=O)N(C)[C@H](C[C@@H](OC(C)=O)c1nc(C(=O)N[C@@H](Cc2ccccc2)C[C@H](C)C(=O)O)cs1)C(C)C [Tb1, N^14-desacetoxytubulysin H, reference compound]	–	–	–	–	–	–	–	0.02 nM	> 10 nM	0.34 nM
COC(=O)[C@@H](C)C[C@H](Cc1ccccc1)NC(=O)c1csc(CC[C@H](C(C)C)N(C)C(=O)[C@@H](NC(=O)[C@H]2CCCCN2C)C(C)C)n1 [PTb-D48]	> 1000 nM	> 1000 nM	–	> 1000 nM	–	–	–	–	–	–
COC(=O)[C@@H](C)C[C@H](Cc1ccccc1)NC(=O)c1csc([C@@H](C[C@H](C(C)C)N(C)C(=O)[C@H](C)NC(=O)[C@H]2CCCCN2C)OC(C)=O)n1 [Tb89, Methyl (2S,4R)-4-[({2-[(1R,3R)-1-acetoxy-4-methyl-3-{methyl[(2S)-2-({[(2R)-1-methylpiperidin-2-yl]carbonyl}amino)propanoyl]amino}pentyl]-1,3-thiazol-4-yl}carbonyl)amino]-2-methyl-5-phenylpentanoate]	> 1000 nM	> 1000 nM	–	> 1000 nM	–	–	–	–	–	–
